Measurements from patent US8815857B2 (Boehringer Ingelheim International GmbH, priority 2011, dated 2014).
Converted amounts (≈) assume the structure as drawn.

Columns and labels:
[1] = molecular target: T1, Recombinant human soluble guanylate cyclase (sGC), alpha 1 / beta 1 subunits, heme-free (Homo sapiens, UniProt Q02108+Q02153); experiment: Molecular assay: cGMP formation by heme-free recombinant sGC (CisBio cGMP detection kit); format: biochemical; conditions: 300 pM heme-free sGC, 37° C., 60 min, cGMP readout; read-out: EC50 nM, Activity of Compounds in Molecular Assay
T1 construct: histidine tag (C); made in house; host or cells: Sf9 insect cells (baculovirus coinfection)
T1 sequence (Q02108 1-690 partner): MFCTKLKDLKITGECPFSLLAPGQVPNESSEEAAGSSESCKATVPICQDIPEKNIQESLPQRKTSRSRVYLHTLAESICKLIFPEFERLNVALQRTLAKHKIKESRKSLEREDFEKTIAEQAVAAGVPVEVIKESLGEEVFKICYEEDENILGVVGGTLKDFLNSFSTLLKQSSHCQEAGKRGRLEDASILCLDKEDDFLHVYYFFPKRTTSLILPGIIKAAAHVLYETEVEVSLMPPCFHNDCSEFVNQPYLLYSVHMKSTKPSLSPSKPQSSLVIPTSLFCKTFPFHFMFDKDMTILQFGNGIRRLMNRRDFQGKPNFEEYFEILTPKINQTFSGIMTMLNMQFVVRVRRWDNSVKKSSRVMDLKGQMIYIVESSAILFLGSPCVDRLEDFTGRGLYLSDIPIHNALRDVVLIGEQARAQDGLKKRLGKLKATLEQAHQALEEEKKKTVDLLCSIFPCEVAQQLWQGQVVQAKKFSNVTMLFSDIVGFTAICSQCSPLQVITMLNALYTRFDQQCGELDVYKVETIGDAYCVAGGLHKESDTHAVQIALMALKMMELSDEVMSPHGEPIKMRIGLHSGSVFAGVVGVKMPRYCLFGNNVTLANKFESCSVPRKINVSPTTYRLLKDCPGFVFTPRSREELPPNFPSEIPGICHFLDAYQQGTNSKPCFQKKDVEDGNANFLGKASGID
T1 sequence (Q02153 1-619): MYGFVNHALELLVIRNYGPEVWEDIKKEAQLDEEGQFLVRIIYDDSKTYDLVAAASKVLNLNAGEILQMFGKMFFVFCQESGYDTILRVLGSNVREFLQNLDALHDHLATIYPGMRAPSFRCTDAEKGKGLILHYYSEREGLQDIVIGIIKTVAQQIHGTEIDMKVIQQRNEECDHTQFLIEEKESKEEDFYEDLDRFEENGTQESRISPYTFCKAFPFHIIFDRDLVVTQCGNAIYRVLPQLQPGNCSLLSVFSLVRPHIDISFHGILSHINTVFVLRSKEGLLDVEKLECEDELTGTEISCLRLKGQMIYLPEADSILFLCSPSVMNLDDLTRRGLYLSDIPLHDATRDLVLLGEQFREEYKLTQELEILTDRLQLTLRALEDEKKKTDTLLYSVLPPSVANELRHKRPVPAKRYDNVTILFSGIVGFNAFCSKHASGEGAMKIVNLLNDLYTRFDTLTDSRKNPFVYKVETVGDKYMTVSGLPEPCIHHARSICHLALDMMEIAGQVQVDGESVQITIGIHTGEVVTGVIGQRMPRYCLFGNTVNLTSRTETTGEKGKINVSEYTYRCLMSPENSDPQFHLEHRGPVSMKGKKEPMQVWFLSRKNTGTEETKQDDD
Description: Recombinant human soluble guanylate cyclase (sGC) is purified from Sf9 insect cells coinfected with baculoviruses expressing the alpha 1 or beta 1 subunit of sGC, both with a C-terminal histidine tag. Heme-free sGC is prepared by treating cell lysate with a final concentration of 0.5% Tween 20 prior to purification on a nickel affinity column.
sGC catalyzes the conversion of guanosine-5′-triphosphate (GTP) to cyclic guanosine monophosphate (cGMP). The activity of sGC is measured in vitro using the commercially available CisBio cGMP detection kit (catalog # 62GM2PEB) in a 384 well format. In brief, 300 pM heme-free sGC is incubated in reaction buffer (50 mM MOPS pH 6.8, 0.2 N KOH, 50 mM NaCl, 2 mM MgCl2, 0.1% BSA, 1.25 mM IBMX, 0.25 mM TCEP, 50 nM GTP) in the presence or absence of dilutions of test compounds diluted in DMSO (final concentration of 1%) in a volume of 10 microL at 37° C. for 60 min. Undiluted reaction products or an 80-fold dilution of reaction products (10 microL of either) prepared in reaction buffer containing 0.2 mM TCEP and 10 mM EDTA is mixed with 5 microL of d2-cGMP plus 5 microL of Eu^3+ cryptate-labeled anti-cGMP, each diluted in buffer containing 0.1 M KPO4 pH 7.5, 0.4 M KF, 20 mM EDTA, 0.2% BSA. After a one h incubation at room temperature in the dark, the mixtures are quantified on an EnVision plate reader (PerkinElmer) according to manufacturer instructions (laser excitation 337 nm, emission 620 and 665 nm). The ratio at each compound concentration is converted to nM cGMP using the linear portion of a calibration curve. Log compound concentration is plotted against combined undiluted and diluted nM cGMP values to determine the EC50 for each curve.

[2] = Assessment of solubility: HT solubility in pION buffer, UV spectrophotometry; conditions: 16-19 h incubation, 1.0% DMSO; for solubility: pION system solution buffer, kinetic from dmso stock
[3] = pH 4.5, pH 4.5, aqueous buffer, Solubility (pH 4.5), pH 4.5 buffer
[4] = pH 7.4, pH 7.4, aqueous buffer, Solubility (pH 7.4), pH 7.4 buffer

Compound | EC50 [1] [nM] | solubility [2, 3] [µg/mL] | solubility [2, 4] [µg/mL] | Solubility (pH 4.5) ([2]; pH 4.5 buffer) [μg/mL] | Solubility (pH 7.4) ([2]; pH 7.4 buffer) [μg/mL]
Cc1ccc(OCc2ccc(CN3CCOCC3)cc2C#N)c(-c2csc(N3CC[C@@H](C(=O)O)[C@@H](C)C3)n2)c1 (relative stereo) [Compound 69, cis-1-[4-[2-[[2-cyano-4-(morpholinomethyl)phenyl]methoxy]-5-methyl-phenyl]thiazol-2-yl]-3-methyl-piperidine-4-carboxylic acid] | 72 | > 65 | > 65 |  | 
Cc1ccc(OCc2ccc(CN3CCOCC3)cc2C)c(-c2csc(N3CC[C@@H](C(=O)O)C3)n2)c1 (single isomer, unassigned) [Compound 5, R-1-{4-[5-methyl-2-(2-methyl-4-morpholin-4-ylmethyl-benzyloxy)-phenyl]-thiazol-2-yl}-pyrrolidine-3-carboxylic acid] | 2000 | 37 (≈ 72.9 µM) | 40 (≈ 78.8 µM) |  | 
Cc1ccc(OCc2ccc(CN3CCOCC3)cc2C)c(-c2csc(N3CC[C@@H](C(=O)O)[C@@H](C)C3)n2)c1 (single isomer, unassigned) [Compound 50] | 520 | 18 (≈ 33.6 µM) | > 53 |  | 
Cc1cc(C(=O)N2CCCCC2)ccc1COc1ccc(F)cc1-c1csc(N2CCC(C(=O)O)C(C)C2)n1 (stereo not drawn) [Compound 1] | 60 | 0.85 (≈ 1.54 µM) | > 100 |  | 
Cc1cc(CN2CCOCC2)ccc1COc1ccccc1-c1csc(N2CCC(C(=O)O)C(C)C2)n1 (stereo not drawn) [Compound 2] | 320 |  |  | >71 | >71
Cc1ccc(OCc2ccc(CN3CCOCC3)cc2C)c(-c2csc(NCCC(=O)O)n2)c1 [Compound 3] | 1300 | > 52 | > 52 |  | 
Cc1ccc(OCc2ccc(CN3CCOCC3)cc2C)c(-c2csc(NCCCC(=O)O)n2)c1 [Compound 4] | 760 | > 54 | > 54 |  | 
Cc1ccc(OCc2ccc(CN3CCOCC3)cc2C)c(-c2csc(N3CCC(C(=O)O)C3)n2)c1 (stereo not drawn) [Compound 6] | 610 | > 62 | > 62 |  | 
Cc1cc(C(=O)N2CCCCC2)ccc1COc1ccccc1-c1csc(C2=CCC(C(=O)O)CC2)n1 (stereo not drawn) [Compound 8] | 330 | 0.15 (≈ 0.29 µM) | > 51 |  | 
Cc1cc(C(=O)N2CCCCC2)ccc1COc1ccccc1-c1csc(N2CC3C(C2)C3C(=O)O)n1 (stereo not drawn) [Compound 9] | 680 | 5.6 (≈ 10.8 µM) | > 51 |  | 
Cc1ccc(OCc2ccc(CN3CCOCC3)cc2C)c(-c2csc(C3=CCC(C(=O)O)CC3)n2)c1 (stereo not drawn) [Compound 10] | 4900 | 14 (≈ 27 µM) | 22 (≈ 42.4 µM) |  | 
Cc1cc(C(=O)N2CCCCC2)ccc1COc1ccccc1-c1csc([C@H]2CC[C@@H](C(=O)O)CC2)n1 [Compound 11] | 2300 |  | > 51 | 0.1 | 
Cc1cc(C(=O)N2CCCCC2)ccc1COc1ccccc1-c1csc([C@H]2CC[C@H](C(=O)O)CC2)n1 [Compound 12] | 4000 |  | > 51 | 0.1 | 
Cc1ccc(OCc2ccc(C(=O)N3CCCC3)cc2C)c(-c2csc(N3CCC(C(=O)O)CC3)n2)c1 [Compound 13] | 120 |  |  | 17 | >51
Cc1ccc(OCc2ccc(CN3CCOCC3)cc2C)c(-c2csc(N3CC4C(C3)C4C(=O)O)n2)c1 (stereo not drawn) [Compound 14] | 4700 | > 63 | > 63 |  | 
Cc1cc(C(=O)N2CCCC2)ccc1COc1c(C)cccc1-c1csc(N2CCC(C(=O)O)CC2)n1 [Compound 15] | 190 | 13 (≈ 25 µM) | > 51 |  | 
Cc1cc(C(=O)N2CCCCC2)ccc1COc1ccccc1-c1csc(N2CCC(C(=O)O)CC2)n1 [Compound 17] | 79 | 0.7 (≈ 1.35 µM) | > 51 |  | 
Cc1ccc(OCc2ccc(CN3CCOCC3)cc2C)c(-c2csc(N3CCC(C(=O)O)CC3)n2)c1 [Compound 20, 1-{4-[5-methyl-2-(2-methyl-4-morpholin-4-ylmethyl-benzyloxy)-phenyl]-thiazol-2-yl}-piperidine-4-carboxylic acid] | 140 | 33 (≈ 63.3 µM) | 36 (≈ 69 µM) |  | 
Cc1cc(CN2CCOCC2)ccc1COc1c(C)cccc1-c1csc(N2CCC(C(=O)O)CC2)n1 [Compound 21] | 70 | > 52 | > 52 |  | 
Cc1ccc(OCc2ccc(CN3CCOCC3)cc2C)c(-c2csc(N3CCCC(C(=O)O)C3)n2)c1 (stereo not drawn) [Compound 22] | 1600 | > 63 | > 63 |  | 
Cc1ccc(OCc2ccc(CN3CCOCC3)cc2C)c(-c2csc(N3CCC(CC(=O)O)C3)n2)c1 (stereo not drawn) [Compound 23] | 3200 | > 56 | > 56 |  | 
Cc1cc(CN2CCOCC2)ccc1COc1ccccc1-c1csc(N2CCC(C(=O)O)C(C)C2)n1 (stereo not drawn) [Compound 24] | 510 | > 59 | > 59 |  | 
Cc1ccc(OCc2ccc(CNCC(C)(C)O)cc2C)c(-c2csc(N3CCC(C(=O)O)CC3)n2)c1 [Compound 25] | 1300 | > 63 | > 63 |  | 
Cc1ccc(OCc2ccc(CNC(C)(C)CO)cc2C)c(-c2csc(N3CCC(C(=O)O)CC3)n2)c1 [Compound 26] | 2000 | > 63 | > 63 |  | 
Cc1cc(CN2CCOCC2)ccc1COc1ccc(F)cc1-c1csc(N2CCC(C(=O)O)CC2)n1 [Compound 28] | 200 | > 52 | > 52 |  | 
Cc1ccc(OCc2ccc(CN3CCCCC3)cc2C#N)c(-c2csc(N3CCC(C(=O)O)CC3)n2)c1 [Compound 29] | 440 | > 64 | 5.2 (≈ 9.8 µM) |  | 
Cc1ccc(OCc2ccc(C(=O)N3CCCC3)cc2C#N)c(-c2csc(N3CCC(C(=O)O)CC3)n2)c1 [Compound 30, 1-[4-[2-[[2-cyano-4-(pyrrolidine-1-carbonyl)phenyl]methoxy]-5-methyl-phenyl]thiazol-2-yl]piperidine-4-carboxylic acid] | 61 | 3.1 (≈ 5.84 µM) | > 53 |  | 
Cc1cccc(-c2csc(N3CCC(C(=O)O)CC3)n2)c1OCc1ccc(C(=O)N2CCCC2)cc1C#N [Compound 31] | 250 | 25 (≈ 47.1 µM) | > 53 |  | 
